# Laboratory results reported in patent EP1034273B1, “HISTAMINE AND SEROTONIN BINDING MOLECULES” (Evolutec Limited, priority 1997, dated 1999).
# Like-named read-outs stand apart in the source and are kept apart here.
# Tests used:
# [1] = target: recombinant D.RET6 (SEQ ID 4), Dermacentor reticulatus histamine-binding protein (Dermacentor reticulatus, UniProt Q8WSK7); experiment: biochemical
# Procedure: (§1) The recombinant D.RET6 was diluted with 1.5% γ-globulin (Sigma) and used in one set of experiments. Fifty microlitres of the protein solution were incubated with 50 µl of 1:2500 dilution of [2,5-^3H] histamine diHCl (1µCi/µl) solution (Amersham) at room temperature for at least 3 hours with or without increasing concentrations of unlabelled histamine. All the assays were carried out in a total volume of 200 µl. The incubations were terminated by adding 125 µl of PEG 8000 (36% w/v in PBS) and centrifuged in a microfuge at maximum speed for 12 minutes to collect the bound protein. The tubes were spun once more to remove all supernatant without disturbing the pellets. Subsequently, pellets were redissolved in PBS. Three millilitres of liquid scintillation cocktail (Beckman) were added and the radioactivity measured using a liquid scintillation counter (Wallac, 1217 Rackbeta).
# To study the effect of serotonin on histamine binding activity, 10 µl of PBS (as a control experiment) or 10 µl serotonin (50 µM or 500 µM) were added to each 200 µl binding assay.
# For data analysis, the ligand affinity constant was estimated from Scatchard plots as previously described by Hulme, 1992, Receptor-Ligand Interactions, IRL Press, Oxford). The nonlinear regression was used to fit the data (Motulsky, 1987, FASEB J, 1: 365-374) and two asymtotic straight lines were made as described elsewhere (Feldman, 1972, Analytical Biochem 48: 317).
# recombinant D.RET6 = target: T1, recombinant D.RET6 (Dermacentor reticulatus, UniProt Q8WSK7); experiment: Competitive binding assay: unlabelled ligands displacing radioactive histamine from recombinant D.RET6; details: graphically derived from competitive binding curve (Figure 15), read-out: IC50 of the unlabelled ligands in displacing the radioactive histamine from the binding site by 50%
# T1 sequence (Q8WSK7 18-209): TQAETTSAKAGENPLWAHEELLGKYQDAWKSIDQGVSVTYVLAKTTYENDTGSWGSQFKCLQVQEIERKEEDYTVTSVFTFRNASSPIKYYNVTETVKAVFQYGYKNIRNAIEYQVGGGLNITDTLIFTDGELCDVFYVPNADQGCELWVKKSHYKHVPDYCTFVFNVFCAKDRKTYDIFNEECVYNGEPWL
# Procedure: as §1
# In a second set of experiments, a competitive binding assay was used to compare three unlabelled competitor ligands (histamine, 1-methylhistamine and 3-methylhistamine).
# [2] = target: Av-HBP (SEQ. ID. 6), semi-purified recombinant protein, Amblyomma variegatum; details: read-out: equilibrium dissociation constant (Kd) for histamine; results not shown
smiles,measurement,setting,value
NCCc1c[nH]cn1 [histamine],Kd,"[1]; Kd, first (higher affinity) histamine binding site, final concentration of 2.38µM serotonin",1.1 nM
same,Kd,"[1]; Kd, first (higher affinity) histamine binding site, no serotonin, approximate, from asymptotic lines of Scatchard plot",~60 nM
same,Kd,"[1]; Kd, first (higher affinity) histamine binding site, with 23.8µM serotonin",1.3 nM
same,increase of binding affinity of D.RET6 for histamine,[1]; in the presence of serotonin versus no serotonin,sixty-fold
same,Kd,"[1]; read-out: Kd, second (lower affinity) histamine binding site, final concentration of 2.38µM serotonin",1000 nM
same,Kd,"[1]; read-out: Kd, second (lower affinity) histamine binding site, no serotonin, approximate, from asymptotic lines of Scatchard plot",~2000 nM
same,Kd,"[1]; read-out: Kd, second (lower affinity) histamine binding site, with 23.8µM serotonin",1000 nM
same,IC50,recombinant D.RET6,133 nM
same,Kd,[2],~7.3 nM
